Laboratory results from US20230355549A1, “METHOD OF PREVENTING KIDNEY INJURY DISRUPTION OF INTESTINAL LYMPHATICS” (Vanderbilt University, priority 2020, published 2023).
Counter-ions that a name gives are not always drawn. One block for each molecule: values may come before it.

Columns and labels:
[1] = tested on: Sprague Dawley rats; details: rat, in vivo, ip, 125 mg/kg
Method: Adult male Sprague Dawley rats (200-225 g, Charles River) were housed under a 12-h light/dark cycle with free access to normal rat chow and water. Kidney injury was induced by a single injection of puromycin […] (PAN) (125 mg/kg body weight, i.p.) while saline-injected rats served as controls (Cont). Eight days after injection, rats were sacrificed and blood, urine, and tissues were harvested. We also studied adult male (12 weeks old) Nphs1-hCD25 transgenic (NEP25, C57 bl/6 background) mice expressing human CD25 on podocytes can be selectively injured by injection of recombinant immunotoxin, anti-Tac (Fv)-PE38 (LMB2, 1 ng/g BW, i.v. generously provided by Dr. Ira Pastan) that results in proteinuria. These and wild type control mice were housed under normal conditions with free access to regular rodent chow and water. Two weeks after LMB2, mice were sacrificed and blood, urine and tissues harvested. All animal procedures were approved by the Institutional Animal Care and Use Committee at Vanderbilt University.
Mesenteric lymph was collected in a subset of conscious rats following cannulation of the mesenteric lymph duct. The rats were placed in Bollman cages in a temperature- and humidity-controlled incubator and lymph collected hourly for at least 3 h.
(§1) Albumin (Exocell), apoAI (Mybiosource), sphingosine-1 phosphate (S1P) (Mybiosource) and VEGF-C levels (Mybiosource) were measured by ELISA. Albuminuria was measured as urine albumin-to-creatinine ratio (ACR) (Nephrat II, Exocell) and QuantiChrom™ Creatinine Assay Kit (Bioassay Systems), respectively. Plasma and lymph total cholesterol and triglycerides were measured enzymatically (Cliniqa). HDL and LDL fractions were isolated from plasma and lymph by density-gradient ultracentrifugation after adjustment with potassium bromide. Lipoprotein particle size was evaluated by NMR methodology (Liposcience). Colorimetric assays were used to measure protein (BCA, ThermoFisher). Lipoproteins in plasma and lymph were separated by size-exclusion chromatography (SEC) using an Akta Pure fast-protein liquid chromatography (FPLC) system (GE Healthcare). Total IsoLG-protein adduct by LC/MS was measured as IsoLG-lysine after complete proteolytic digestion of lymph samples.

[2] = tested on: ileal organoids; test: IsoLG adduct production in cultured ileal organoids (enteroids); type: cell-based; details: 1 mmol/L, 3 days, vs vehicle, FIG. 4C
Method: as §1
Intact perfused intestine was used to generate ileal organoids. Cultured ileal organoids were incubated in medium with or without indoxyl sulfate (1 mmol/L, Sigma) for 3 days. Total protein was extracted for quantitation of IsoLG.

[3] = tested on: THP-1 cells; test: VEGFC mRNA in THP-1 derived macrophages; type: cell-based; details: apoAI 10 μg/ml, IsoLG 1 μM/L, 48 h, vs unmodified apoAI, FIG. 6D
Method: THP-1 cells were plated and differentiated into macrophages by […] containing 10% FBS and 50 ng/ml phorbol 12-myristate 13-acetate for 3 days. Cells were incubated with unmodified or IsoLG-modified apoAI (apoAI: 10 μg/ml, IsoLG: 1 μM/L) for 48 h. VEGFC mRNA was assessed by RT-PCR.

[4] = tested on: isolated mesenteric lymphatic vessels; test: Lymphatic dynamics ex vivo, isolated mesenteric lymphatic vessels
Method: Mesenteric lymphatic vessels were collected and mounted in a perfusion chamber. Chambers were placed on inverted microscopes equipped with a digital image capture system (IonOptix) to record pre-valve intraluminal diameters and frequency of contractions. Vessels were warmed to 37° C., pressurized to 0.5 mmHg using a column of Krebs buffer, and allowed to equilibrate (20-60 minutes). Viable vessels were then pressurized in a stepwise manner to a constant pressure of 3.5 mmHg, then exposed to purified apoAI or modified apoAI using 1 molar equivalent synthetic IsoLG or vehicle (DMSO). Fresh Krebs buffer was circulated to facilitate wash out. Next vessels were exposed to IsoLG-modified apoAI. After each challenge, lumen diameters were allowed to plateau (40-60 minutes).

[5] = tested on: Primary adult dermal lymphatic endothelial cells (LECs); test: Cultured lymphatic endothelial cells (LECs) exposed to IsoLG-modified apoAI; type: cell-based; details: apoAI 10 μg/ml, IsoLG 1 μM/L, 18 h, vs unmodified apoAI
Method: Primary adult dermal lymphatic endothelial cells (LECs) (HMVEC-DLyAd, Lonza) were cultured with conditioned growth medium (Lonza). Cells at passage 5-6 with ˜70% confluence were starved in serum-free medium overnight, then incubated with unmodified or IsoLG-modified apoAI (apoAI: 10 μg/ml, IsoLG: 1 μM/L) for 18 h. […] Quantification of eNOS (Nos3) and β-actin (ACTB) mRNA was performed by RT-PCR and production of superoxide was assessed by high-performance liquid chromatography.

ACR (albumin/creatinine concentration ratio) [1]: 126.652 ± 13.283 mg/mg | Plasma Albumin [1]: 350.7 ± 27.3 mg/dL | Plasma Cholesterol [1]: 236.6 ± 36.8 mg/dL | Plasma Triglyceride [1]: 132.1 ± 19.2 mg/dL
Molecule: CN(C)c1ncnc2c1ncn2[C@@H]1O[C@H](CO)[C@@H](N)[C@H]1O [PAN, puromycin aminoglycoside]

Molecule: O=S(=O)(O)Oc1c[nH]c2ccccc12 [indoxyl sulfate]
IsoLG adduct production [2]: significantly increased

Molecule: IsoLG-apoAI: purified apoAI modified using 1 molar equivalent synthetic IsoLG
VEGFC mRNA expression [3]: significantly increased | end-systolic diameter (ESD) ([4]; FIG. 5D): failed to significantly alter | end-diastolic diameter (EDD) ([4]; FIG. 5E): significantly decreased | amplitude of contraction ([4]; FIG. 5F): significantly reduced | frequency of contractions ([4]; vs unmodified apoAI, FIG. 5C): increased frequency of contractions | production of ROS ([5]; FIG. 5A): significantly greater production of ROS | eNOS (Nos3) gene expression ([5]; FIG. 5B): increased Nos3
